The test system of assay [1] is HeLa cells expressing Centrin1-GFP. Description: Centriole phenotypic scoring (number of Centrin1-GFP foci). The assay is classed as cell-based, human. The text has this: Having established that SiR595-centrinone (2d) can successfully label overexpressed Plk4, we wanted to investigate whether it also marks endogenous Plk4. […] In contrast, partial Plk4 inhibition leads to increased levels of centriolar Plk4 due to partial interference with protein degradation mediated by autophosphorylation, overall resulting in centriole overamplification.[8] Therefore, both under-duplication and overamplification of centrioles can be used as a proxy for SiR595-centrinone binding to endogenous Plk4. […] We conclude that the failure of SiR595-centrinone (2d) to detect endogenous Plk4 is due to the low binding affinity of the probe in combination with low protein levels. […] In the second step, the Plk4-bound molecule is specifically reacted with an appropriate fluorogenic tetrazine dye.[27]−[33] This strategy was applied previously successfully to label various protein targets in live and fixed cells,[30],[32],[34]−[38] and we reasoned that a smaller and potentially more permeable Cen-TCO (3) derivative would likewise enable more efficient labeling of endogenous Plk4.
We conjugated trans-cyclooctene to the previously obtained compound (4) to obtain Cen-TCO (3) using the synthetic route outlined in Scheme S2. The resulting Cen-TCO (3) reacted with an appropriate tetrazine, such as SiR650-TetH (4a) (Figure S4A). The reaction was followed by LC-MS, and the data confirmed quantitative conversion of Cen-TCO (3) to the appropriate cycloaddition product Cen-Click-SiR650 (Figure S4A, D). […] To assess the phenotype caused by Cen-TCO (3), we incubated HeLa cells expressing Centrin1-GFP with different concentrations of Cen-TCO (3) for 24 h, followed by scoring of Centrin1-GFP foci numbers (Figure S5B). […] Despite the high unspecific background signal, a clear focus could be detected at centrioles (Figure 4B). […] The fwhm of the circular signal in this case was 368 ± 26 (N = 6) (Figure S7B), which corresponds to the size measured with overexpressed GFP-Plk4(K41M) (see Figure 3D), and approximately that of the torus region surrounding the centriole.[40] […]

The next assay addresses T1, Plk4 kinase domain (Homo sapiens, UniProt O00444).
T1 construct: Plasmids encoding fragments of Plk4 kinase domain (2-275) with 6xHis-tag were cloned in pET system vectors; made in house; host or cells: E. coli BL21 gold (DE3)
T1 sequence (O00444 2-275): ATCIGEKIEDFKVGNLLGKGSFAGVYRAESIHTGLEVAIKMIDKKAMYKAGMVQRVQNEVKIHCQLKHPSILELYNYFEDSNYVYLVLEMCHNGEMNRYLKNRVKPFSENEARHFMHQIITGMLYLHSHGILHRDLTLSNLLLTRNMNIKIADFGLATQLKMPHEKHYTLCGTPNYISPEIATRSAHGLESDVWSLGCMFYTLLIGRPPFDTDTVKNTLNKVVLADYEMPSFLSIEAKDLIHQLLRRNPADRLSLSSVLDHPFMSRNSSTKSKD
Description: Competition binding assay based on fluorescence polarization (tracer Alexa488-PEG-N-centrinone). The conditions noted are these: for Kd: Alexa488-PEG-N-centrinone 1 nM, Plk4-KD 5 nM; for binding affinity lower (KD higher) than that of unmodified centrinone: ratio of Kd to Kd of centrinone. The text has this: Moreover, we substituted the basic acetyl-piperazine nitrogen in compounds (1 and 2a) with an acetyl-piperidine, to avoid probe protonation and accumulation in endolysosomal compartments (Figure S1A, B).[23] […] These probes were characterized first in vitro by measuring their fluorogenicity in the presence of the 6xHis-tagged Plk4 kinase domain (KD) (Table 1). […] Next, we measured the binding affinities of the probes to the Plk4 kinase domain via a competition binding assay based on fluorescence polarization. […]
1.3.6 Fluorescence Polarization assay & competition assay […]
plate (Greiner Bio-One). Upon mixture of protein and ligand, the plate was incubated for 30 min at room temperature followed by fluorescence polarization measurements by a plate reader (TECAN Spark® 20M) using 485 nm as excitation wavelength (bandwidth 20 nm) and 535 nm as emission wavelength (bandwidth 25 nm). The obtained fluorescence polarization values from each well were plotted against the concentration of the protein. The apparent Kd values were obtained by fitting the curve to the […]
FP = FP + FPmax ― FPmin (C + C + K ― (C + C + K )2 ― 4C C ) […]
protein should be around the Kd of the tracer to ensure that enough free protein that can bind the […]
competitor, and enough signal change coming from binding and unbinding of the tracer. The solution of the tracer and protein was titrated with increasing amounts of competitors, in our case SiR650- and […]
The mixture was then incubated for an hour at room temperature and the FP was then measured on a plate reader using the same conditions as mentioned before. From the obtained FP values, we have calculated the amount of free protein in the solution for each concentration of competitor using the equation of the single-site binding isotherm:
Pfree = Kd_tracer FP ― FP
Where Pfree is concentration of free protein, Kd tracer represents the previously determined binding affinity

Regarding `COc1c(Nc2cc(C)[nH]n2)nc(Sc2ccc(S(=O)(=O)Cc3cccc([N+](=O)[O-])c3F)cc2F)nc1N1CCC(CC(=O)NCCNC(=O)c2ccc(C(=O)O)c(C3=C4C=CC(=N)C=C4[Si](C)(C)c4cc(N)ccc43)c2)CC1` [2d], the “effect on centriole numbers” value in assay [1] (2 μM, 24 h) is “did not affect centriole numbers”. At Plk4 kinase domain, the Kd amounted to 38 ± 5 nM and the “binding affinity lower (KD higher) than that of unmodified centrinone” value is recorded as 42 fold.
`COc1c(Nc2cc(C)[nH]n2)nc(Sc2ccc(S(=O)(=O)Cc3cccc([N+](=O)[O-])c3F)cc2F)nc1N1CCC(CC(=O)NCCNC(=O)OC2CC/C=C/CCC2)CC1` (stereo not shown) [compound 3]: the “concentration causing the centriole under-duplication phenotype” value in assay [1] (24 h incubation, scoring of Centrin1-GFP foci) is recorded as at least 500 nM. For the same compound, at Plk4 kinase domain, the equilibrium dissociation constant (Kd) was determined as 8 ± 1 nM and the “binding affinity lower (KD higher) than that of unmodified centrinone” value was around 9 fold. In addition, the “binding affinity higher than that of SiR595-centrinone (2d)” value on Plk4 kinase domain (ratio of Kd values) amounted to 4 fold.

The record behind these values is publication PMC10466336, “Chemical Probe for Imaging of Polo-like Kinase 4 and Centrioles” (JACS Au, 2023).
